Reference: PubChem BioAssay AID2060883 (Molecular Pharmacology Branch, DTP, NCI, 2025)

System: 843782-103-R-J1-PDC complex spheroid viability
Experiment: Anticancer human tumor 843782-103-R-J1-PDC patient-derived lung adenocarcinoma cell line growth inhibition [RAS]
Conditions: for IC50: curve of first compound; for viability, T/C: stronger effect = lower value
Summary of the method: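 Agents were tested in combination matrices in half-log decrements from a top concentration at or near clinical Cmax (10 microM if undetermined). Targets were multi-cell spheroids of tumour lines plus HUVEC and MSC stromal cells.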

[1] = second compound 0.0316 µM, first compound 0.00316 µM
[2] = second compound 0.0316 µM, first compound 0.01 µM
[3] = second compound 0.0316 µM, first compound 0.0316 µM
[4] = second compound 0.0316 µM, first compound 0.1 µM
[5] = second compound 0.0316 µM, first compound 0.316 µM
[6] = second compound 0.0316 µM, first compound 1 µM
[7] = second compound 0.1 µM, first compound 0.00316 µM
[8] = second compound 0.1 µM, first compound 0.01 µM
[9] = second compound 0.1 µM, first compound 0.0316 µM
[10] = second compound 0.1 µM, first compound 0.1 µM
[11] = second compound 0.1 µM, first compound 0.316 µM
[12] = second compound 0.1 µM, first compound 1 µM
[13] = second compound 0.316 µM, first compound 0.00316 µM
[14] = second compound 0.316 µM, first compound 0.01 µM
[15] = second compound 0.316 µM, first compound 0.0316 µM
[16] = second compound 0.316 µM, first compound 0.1 µM
[17] = second compound 0.316 µM, first compound 0.316 µM
[18] = second compound 0.316 µM, first compound 1 µM
[19] = second compound 1 µM, first compound 0.00316 µM
[20] = second compound 1 µM, first compound 0.01 µM
[21] = second compound 1 µM, first compound 0.0316 µM
[22] = second compound 1 µM, first compound 0.1 µM
[23] = second compound 1 µM, first compound 0.316 µM
[24] = second compound 1 µM, first compound 1 µM
[25] = second compound 3.16 µM, first compound 0.00316 µM
[26] = second compound 3.16 µM, first compound 0.01 µM
[27] = second compound 3.16 µM, first compound 0.0316 µM
[28] = second compound 3.16 µM, first compound 0.1 µM
[29] = second compound 3.16 µM, first compound 0.316 µM
[30] = second compound 3.16 µM, first compound 1 µM
[31] = second compound 10 µM, first compound 0.00316 µM
[32] = second compound 10 µM, first compound 0.01 µM
[33] = second compound 10 µM, first compound 0.0316 µM
[34] = second compound 10 µM, first compound 0.1 µM
[35] = second compound 10 µM, first compound 0.316 µM
[36] = second compound 10 µM, first compound 1 µM
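Note: viability read after seven days of compound exposure.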

`CCN1CCN(Cc2ccc(Nc3ncc(F)c(-c4cc(F)c5nc(C)n(C(C)C)c5c4)n3)nc2)CC1` + C#Cc1c(F)ccc2cc(O)cc(-c3ncc4c(N5CC6CCC(C5)N6)nc(OCC56CCCN5CC(F)C6)nc4c3F)c12 was tested, and the IC50 (second compound 0.0316 µM) was > 1 µM, the IC50 (second compound 0.1 µM) was > 1 µM and the IC50 (second compound 0.316 µM) was > 1 µM. For the same molecule, the IC50 (second compound 1 µM) was 0.905 µM, the IC50 (second compound 3.16 µM) was 0.415 µM and the IC50 (second compound 10 µM) was 0.0767 µM. For the same molecule, the viability, T/C [1] was 108%, the viability, T/C [2] was 93% and the viability, T/C [3] was 101%. It also gave a viability, T/C [4] of 105%, a viability, T/C [5] of 101% and a viability, T/C [6] of 71%. For the same molecule, the viability, T/C [7] was 107%, the viability, T/C [8] was 104% and the viability, T/C [9] was 93.3%. For the same molecule, the viability, T/C [10] was 97.3%, the viability, T/C [11] was 97.1% and the viability, T/C [12] was 75%. The viability, T/C [13] was 107%, the viability, T/C [14] was 101% and the viability, T/C [15] was 103%. It also gave a viability, T/C [16] of 99.3%, a viability, T/C [17] of 86.7% and a viability, T/C [18] of 65%. The viability, T/C [19] was 105%, the viability, T/C [20] was 92.6% and the viability, T/C [21] was 93.9%. For the same molecule, the viability, T/C [22] was 89.5%, the viability, T/C [23] was 75.9% and the viability, T/C [24] was 46.9%. It also gave a viability, T/C [25] of 87.2%, a viability, T/C [26] of 88.6% and a viability, T/C [27] of 79.5%. It also gave a viability, T/C [28] of 69.4%, a viability, T/C [29] of 53.1% and a viability, T/C [30] of 40%. The viability, T/C [31] was 67%, the viability, T/C [32] was 60.9% and the viability, T/C [33] was 57.6%. It also gave a viability, T/C [34] of 46.2%, a viability, T/C [35] of 40.6% and a viability, T/C [36] of 26.6%.
In the case of `O=C(c1ccc(F)c(F)c1Nc1ccc(I)cc1F)N1CC(O)([C@@H]2CCCCN2)C1` + C#Cc1c(F)ccc2cc(O)cc(-c3ncc4c(N5CC6CCC(C5)N6)nc(OCC56CCCN5CC(F)C6)nc4c3F)c12, the IC50 (second compound 0.0316 µM) is reported as 0.287 µM, the IC50 (second compound 0.1 µM) is reported as 0.231 µM and the IC50 (second compound 0.316 µM) is reported as 0.23 µM. The IC50 (second compound 1 µM) was 0.129 µM, the IC50 (second compound 3.16 µM) was 0.0352 µM and the IC50 (second compound 10 µM) was 0.00634 µM. It also gave a viability, T/C [1] of 107%, a viability, T/C [2] of 94.2% and a viability, T/C [3] of 92.5%. For the same molecule, the viability, T/C [4] was 84.1%, the viability, T/C [5] was 45.9% and the viability, T/C [6] was 20%. For the same molecule, the viability, T/C [7] was 107%, the viability, T/C [8] was 104% and the viability, T/C [9] was 89.5%. It also gave a viability, T/C [10] of 74%, a viability, T/C [11] of 39.4% and a viability, T/C [12] of 27.7%. For the same molecule, the viability, T/C [13] was 102%, the viability, T/C [14] was 90.7% and the viability, T/C [15] was 89.1%. It also gave a viability, T/C [16] of 75.5%, a viability, T/C [17] of 39.6% and a viability, T/C [18] of 22.3%. For the same molecule, the viability, T/C [19] was 96%, the viability, T/C [20] was 95.4% and the viability, T/C [21] was 81.8%. It also gave a viability, T/C [22] of 56.6%, a viability, T/C [23] of 28.9% and a viability, T/C [24] of 19.7%. For the same molecule, the viability, T/C [25] was 81.5%, the viability, T/C [26] was 65.7% and the viability, T/C [27] was 53.8%. For the same molecule, the viability, T/C [28] was 34.9%, the viability, T/C [29] was 26.4% and the viability, T/C [30] was 18.4%. The viability, T/C [31] was 56.3%, the viability, T/C [32] was 46.5% and the viability, T/C [33] was 34.5%. It also gave a viability, T/C [34] of 26.9%, a viability, T/C [35] of 19.2% and a viability, T/C [36] of 14%.
